pIC50: −log10 of the molar value.
Legend:
MCF7 [1] = assay: Inhibitory activity against BrdU incorporation to MCF-7 cell line following 3 day exposure to compound; assay type: functional, cell-based; details: Homo sapiens, MCF7, 72 h
[2] = molecular target: Cyclin-dependent kinase 2 (Homo sapiens, UniProt P24941); assay: Inhibitory concentration against cyclin-dependent kinase 2
MCF7 [3] = assay: Inhibition of cyclin-dependent kinase phosphorylation of S249-T252 of Rb protein in MCF-7 cells; assay type: functional, cell-based; details: Homo sapiens
[4] = molecular target: Cyclin-dependent kinase 4 (Homo sapiens, UniProt P11802); assay: Inhibition of Cyclin-dependent kinase 4
[5] = molecular target: Cyclin-dependent kinase 1 (Homo sapiens, UniProt P06493); assay: Inhibition of Cyclin-dependent kinase 1
Cyclin-dependent kinase 1, sequence (P06493 whole entry): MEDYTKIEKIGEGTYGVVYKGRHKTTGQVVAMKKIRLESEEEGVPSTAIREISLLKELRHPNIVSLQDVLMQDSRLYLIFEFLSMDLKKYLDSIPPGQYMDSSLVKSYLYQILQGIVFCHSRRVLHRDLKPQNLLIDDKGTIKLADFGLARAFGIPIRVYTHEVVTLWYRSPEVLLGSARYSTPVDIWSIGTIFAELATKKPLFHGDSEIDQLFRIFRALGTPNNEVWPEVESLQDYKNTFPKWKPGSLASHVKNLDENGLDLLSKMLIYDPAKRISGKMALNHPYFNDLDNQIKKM

Cyclin-dependent kinase 4, sequence (P11802 whole entry): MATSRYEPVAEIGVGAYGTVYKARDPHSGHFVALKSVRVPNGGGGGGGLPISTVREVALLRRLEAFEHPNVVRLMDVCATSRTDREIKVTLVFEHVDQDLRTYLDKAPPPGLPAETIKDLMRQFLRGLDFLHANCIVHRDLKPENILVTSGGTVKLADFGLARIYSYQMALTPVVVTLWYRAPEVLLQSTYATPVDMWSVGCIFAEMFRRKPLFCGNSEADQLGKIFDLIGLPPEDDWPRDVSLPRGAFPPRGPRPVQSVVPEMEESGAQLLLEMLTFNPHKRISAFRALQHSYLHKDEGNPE

Structure (SMILES) | pIC50 [2] | also measured
CN(C)CCCN(C)S(=O)(=O)c1ccc(Nc2nccc(-c3cnc4ccccn34)n2)cc1 | 8.30 | pIC50 (MCF7 [1]): 6.36
Cc1nc2ccccn2c1-c1ccnc(Nc2ccc(Cl)cc2)n1 | 6.21 | –
COCCNS(=O)(=O)c1ccc(Nc2ncc(Sc3ccccc3)c(-c3cnc4ccccn34)n2)cc1 | < 5.00 | –
Cc1nc2ccccn2c1-c1ccnc(Nc2ccccc2Cl)n1 | 5.06 | –
COCCCNS(=O)(=O)c1ccc(Nc2nccc(-c3cnc4ccccn34)n2)cc1 | 8.40 | pIC50 (MCF7 [1]): 6.22; pIC50 (MCF7 [3]): 6.40; pIC50 [4]: 5.51; pIC50 [5]: 8.22
Cc1nc2ccccn2c1-c1ccnc(Nc2cccc(Cl)c2)n1 | 6.82 | –
Cc1nc2ccccn2c1-c1ccnc(Nc2ccc(S(N)(=O)=O)cc2)n1 | 7.42 | –
COCCNS(=O)(=O)c1ccc(Nc2nccc(-c3cnc4ccccn34)n2)cc1 | 7.92 | pIC50 (MCF7 [1]): 6.41
Clc1cccc(Nc2nccc(-n3cnc4ccccc43)n2)c1 | 6.17 | –
CN(C)CCCNS(=O)(=O)c1ccc(Nc2nccc(-c3cnc4ccccn34)n2)cc1 | > 8.52 | pIC50 (MCF7 [1]): 7.15
CNS(=O)(=O)c1ccc(Nc2nccc(-c3cnc4ccccn34)n2)cc1 | > 8.52 | pIC50 (MCF7 [1]): 6.59
Cc1nc2ccccn2c1-c1ccnc(Nc2ccccc2)n1 | 6.68 | –
CN(C)CCNS(=O)(=O)c1ccc(Nc2nccc(-c3cnc4ccccn34)n2)cc1 | 8.30 | pIC50 (MCF7 [1]): 7.15; pIC50 (MCF7 [3]): 7.30; pIC50 [4]: 6.59; pIC50 [5]: 7.82

Further lines, with some results ahead:

pIC50 [2] | Structure (SMILES) | also measured
> 8.52 | CCSc1ccc2ncc(-c3ccnc(Nc4ccc(S(=O)(=O)NCCOC)cc4)n3)n2c1 | –
> 8.52 | NS(=O)(=O)c1ccc(Nc2nccc(-c3cnc4ccccn34)n2)cc1 | –
7.80 | COCCNS(=O)(=O)c1ccc(Nc2nccc(-c3cnc4ccc(Sc5ccccc5)cn34)n2)cc1 | –
> 8.52 | COCCNS(=O)(=O)c1ccc(Nc2ncc(Br)c(-c3cnc4ccccn34)n2)cc1 | –
> 8.52 | COCCNS(=O)(=O)c1ccc(Nc2ncc(Cl)c(-c3cnc4ccccn34)n2)cc1 | –
> 8.52 | COCCNS(=O)(=O)c1ccc(Nc2nccc(-c3cnc4ccc(Br)cn34)n2)cc1 | –
> 8.52 | COCCNS(=O)(=O)c1ccc(Nc2nccc(-c3cnc4ccc(C#N)cn34)n2)cc1 | –
8.30 | Clc1cccc(Nc2nccc(-c3cnc4ccccn34)n2)c1 | –
> 8.52 | c1ccc(Nc2nccc(-c3cnc4ccccn34)n2)cc1 | –
